Reference: ChEMBL document CHEMBL5729487, “Small molecule inhibition of transcription factor SALL4 and uses thereof” (2022)

Molecular target: T1, Sal-like protein 4 (Homo sapiens, UniProt Q9UJQ4)
T1 sequence (Q9UJQ4 whole entry): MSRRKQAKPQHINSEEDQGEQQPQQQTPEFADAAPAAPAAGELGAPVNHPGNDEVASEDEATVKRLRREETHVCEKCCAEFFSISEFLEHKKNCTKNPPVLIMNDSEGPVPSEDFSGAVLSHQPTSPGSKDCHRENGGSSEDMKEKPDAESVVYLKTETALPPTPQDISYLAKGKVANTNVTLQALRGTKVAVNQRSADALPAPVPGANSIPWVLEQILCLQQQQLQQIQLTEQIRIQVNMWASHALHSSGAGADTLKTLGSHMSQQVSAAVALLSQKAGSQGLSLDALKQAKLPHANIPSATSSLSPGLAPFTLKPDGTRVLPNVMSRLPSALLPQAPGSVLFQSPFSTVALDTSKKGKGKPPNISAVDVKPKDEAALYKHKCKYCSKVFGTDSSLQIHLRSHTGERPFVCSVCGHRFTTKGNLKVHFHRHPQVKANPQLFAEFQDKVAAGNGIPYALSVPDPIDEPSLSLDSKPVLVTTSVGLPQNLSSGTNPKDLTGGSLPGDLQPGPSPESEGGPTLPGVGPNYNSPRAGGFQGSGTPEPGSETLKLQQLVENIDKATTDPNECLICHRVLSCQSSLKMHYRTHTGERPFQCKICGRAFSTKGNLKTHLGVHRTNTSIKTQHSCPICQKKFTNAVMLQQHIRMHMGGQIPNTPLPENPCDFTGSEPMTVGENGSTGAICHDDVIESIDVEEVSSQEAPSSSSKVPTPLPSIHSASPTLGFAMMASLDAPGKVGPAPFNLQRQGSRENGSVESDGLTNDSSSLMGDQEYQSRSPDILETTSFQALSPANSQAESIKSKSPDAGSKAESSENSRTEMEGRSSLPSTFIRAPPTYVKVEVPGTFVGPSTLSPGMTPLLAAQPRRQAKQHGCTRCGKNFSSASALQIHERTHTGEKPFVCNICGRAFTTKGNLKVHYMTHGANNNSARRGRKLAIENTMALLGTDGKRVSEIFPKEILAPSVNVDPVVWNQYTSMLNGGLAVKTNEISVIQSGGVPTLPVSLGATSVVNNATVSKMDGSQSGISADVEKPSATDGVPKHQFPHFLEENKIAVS
Test: TBD: TBD

Compound	IC50 [nM]
N#Cc1ccc(Nc2c(-c3c(O)ccc4ccccc34)nc3cnccn23)cc1	498
COc1ccc(CCNc2c(-c3c(O)ccc4ccccc34)nc3cnccn23)cc1OC	2490
COc1ccc(Nc2c(-c3c(O)ccc4ccccc34)nc3cnccn23)cc1	619
Oc1ccc2ccccc2c1-c1nc2cnccn2c1NC1CCCCC1	616
Oc1ccc2ccccc2c1-c1nc2cnccn2c1NCCN1CCOCC1	1360
COC(=O)c1cccc(Nc2c(-c3c(O)ccc4ccccc34)nc3cnccn23)c1	623

Next, values leading:

IC50 [nM]	Compound
162	CC(C)(C)Nc1c(-c2c(O)ccc3ccccc23)nc2ccccn12
288	COc1cccc(CNc2c(-c3c(O)ccc4ccccc34)nc3cnccn23)c1
2770	Oc1ccc2ccccc2c1-c1nc2ccccn2c1NC1CCCCC1
1510	Oc1ccc2ccccc2c1-c1nc2ccccn2c1NCc1ccccc1
434	COCCNc1c(-c2c(O)ccc3ccccc23)nc2cnccn12
109	Oc1ccc2ccccc2c1-c1nc2ccccn2c1NC1CC1
2230	Oc1ccc2ccccc2c1-c1nc2ccccn2c1NCCN1CCOCC1
594	Oc1ccc2ccccc2c1-c1nc2cnccn2c1NCc1ccccc1
335	Oc1ccc2ccccc2c1-c1nc2cnccn2c1NC1CC1
783	CC(C)(C)Nc1c(-c2c(O)ccc3ccccc23)nc2cnccn12
